Columns and labels:
[1] = Plasma pharmacokinetics, non-compartmental; type: in vivo, human
tubulin in PBMCs = assay: Microtubule bundle formation; type: in vivo, human; conditions: for mean percentage of MBF: RP2D
QTcB interval = assay: 12-lead ECG, QTcB interval; type: in vivo, human; conditions: baseline or pre- vs post-infusion ECGs, cycles 1 and 2
CYP3A4/5 = conditions: in vitro; cited from earlier work
[2] = KOS-1584 0.8 mg/m^2, 3 h infusion, cycle 1, N=1
[3] = KOS-1584 1.5 mg/m^2, 3 h infusion, cycle 1, N=4
[4] = KOS-1584 2.5 mg/m^2, 3 h infusion, cycle 1, N=4
[5] = KOS-1584 3.7 mg/m^2, 3 h infusion, cycle 1, N=3
[6] = KOS-1584 5.0 mg/m^2, 3 h infusion, cycle 1, N=4
[7] = KOS-1584 6.5 mg/m^2, 3 h infusion, cycle 1, N=6
[8] = KOS-1584 8.5 mg/m^2, 3 h infusion, cycle 1, N=3
[9] = KOS-1584 11.3 mg/m^2, 3 h infusion, cycle 1, N=4
[10] = KOS-1584 15.0 mg/m^2, 3 h infusion, cycle 1, N=4
[11] = KOS-1584 20.0 mg/m^2, 3 h infusion, cycle 1, N=5
[12] = KOS-1584 27 mg/m^2, 3 h infusion, cycle 1, N=4
[13] = KOS-1584 36 mg/m^2, 3 h infusion, cycle 1, N=16
[14] = KOS-1584 42 mg/m^2, 3 h infusion, cycle 1, N=6
[15] = KOS-1584 48 mg/m^2, 3 h infusion, cycle 1, N=2
[16] = all cohorts 0.8-48 mg/m^2, cycle 1

In the case of `C/C1=C/C[C@@H](/C(C)=C/c2csc(C)n2)OC(=O)C[C@H](O)C(C)(C)C(=O)[C@H](C)[C@@H](O)[C@@H](C)/C=C/C1` [KOS-1584, (E)-9,10-didehydroepothilone D], the linearity of pharmacokinetics ([1]; 0.8-48 mg/m^2) was “linear pharmacokinetics”, the “KOS-1584 AUC” value [1, 2] was 26.7 ng·h/mL and the “KOS-1584 CL” value [1, 2] was 30.0 L/h/m^2. For the same compound, the “KOS-1584 Cmax” value [1, 2] was 5.73 ng/mL, the “KOS-1584 Tmax” value [1, 2] was 3.0 ng/mL and the “KOS-1584 Vλ” value [1, 2] was 541 L/m^2. For the same compound, the “KOS-1584 t1/2” value [1, 2] was 12.5 h, the “KOS-1584 AUC” value [1, 3] was 64.9 ± 16.3 ng·h/mL and the “KOS-1584 CL” value [1, 3] was 24.6 ± 7.63 L/h/m^2. For the same compound, the “KOS-1584 Cmax” value [1, 3] was 9.29 ± 4.16 ng/mL, the “KOS-1584 Tmax” value [1, 3] was 2.0 ± 1.2 ng/mL and the “KOS-1584 Vλ” value [1, 3] was 553 ± 146 L/m^2. For the same compound, the “KOS-1584 t1/2” value [1, 3] was 16.0 ± 3.96 h, the “KOS-1584 AUC” value [1, 4] was 170 ± 2.21 ng·h/mL and the “KOS-1584 CL” value [1, 4] was 14.9 ± 1.95 L/h/m^2. The “KOS-1584 Cmax” value [1, 4] was 18.0 ± 5.24 ng/mL, the “KOS-1584 Tmax” value [1, 4] was 3.0 ± 0.02 ng/mL and the “KOS-1584 Vλ” value [1, 4] was 385 ± 109 L/m^2. For the same compound, the “KOS-1584 t1/2” value [1, 4] was 18.2 ± 6.37 h, the “KOS-1584 AUC” value [1, 5] was 359 ± 40.7 ng·h/mL and the “KOS-1584 CL” value [1, 5] was 10.4 ± 1.27 L/h/m^2. The “KOS-1584 Cmax” value [1, 5] was 32.9 ± 10.8 ng/mL, the “KOS-1584 Tmax” value [1, 5] was 3.0 ± 0.06 ng/mL and the “KOS-1584 Vλ” value [1, 5] was 279 ± 60.1 L/m^2. For the same compound, the “KOS-1584 t1/2” value [1, 5] was 18.7 ± 3.64 h, the “KOS-1584 AUC” value [1, 6] was 468 ± 140 ng·h/mL and the “KOS-1584 CL” value [1, 6] was 11.3 ± 2.84 L/h/m^2. The “KOS-1584 Cmax” value [1, 6] was 41.9 ± 13.4 ng/mL, the “KOS-1584 Tmax” value [1, 6] was 2.61 ± 0.74 ng/mL and the “KOS-1584 Vλ” value [1, 6] was 269 ± 104 L/m^2. The “KOS-1584 t1/2” value [1, 6] was 16.0 ± 2.53 h, the “KOS-1584 AUC” value [1, 7] was 566 ± 159 ng·h/mL and the “KOS-1584 CL” value [1, 7] was 12.4 ± 2.91 L/h/m^2. The “KOS-1584 Cmax” value [1, 7] was 41.9 ± 11.3 ng/mL, the “KOS-1584 Tmax” value [1, 7] was 2.49 ± 0.76 ng/mL and the “KOS-1584 Vλ” value [1, 7] was 348 ± 79.9 L/m^2. The “KOS-1584 t1/2” value [1, 7] was 19.9 ± 4.68 h, the “KOS-1584 AUC” value [1, 8] was 620 ± 317 ng·h/mL and the “KOS-1584 CL” value [1, 8] was 15.9 ± 6.34 L/h/m^2. For the same compound, the “KOS-1584 Cmax” value [1, 8] was 78.4 ± 28.8 ng/mL, the “KOS-1584 Tmax” value [1, 8] was 2.96 ± 0.03 ng/mL and the “KOS-1584 Vλ” value [1, 8] was 327 ± 190 L/m^2. The “KOS-1584 t1/2” value [1, 8] was 13.7 ± 4.57 h, the “KOS-1584 AUC” value [1, 9] was 2,206 ± 994 ng h/mL and the “KOS-1584 CL” value [1, 9] was 6.28 ± 3.56 L/h/m^2. The “KOS-1584 Cmax” value [1, 9] was 140 ± 41.9 ng/mL, the “KOS-1584 Tmax” value [1, 9] was 2.60 ± 0.68 ng/mL and the “KOS-1584 Vλ” value [1, 9] was 267 ± 197 L/m^2. For the same compound, the “KOS-1584 t1/2” value [1, 9] was 28.5 ± 6.77 h, the “KOS-1584 AUC” value [1, 10] was 2,204 ± 946 ng h/mL and the “KOS-1584 CL” value [1, 10] was 7.69 ± 2.89 L/h/m^2. For the same compound, the “KOS-1584 Cmax” value [1, 10] was 220 ± 84.7 ng/mL, the “KOS-1584 Tmax” value [1, 10] was 2.97 ± 0.03 ng/mL and the “KOS-1584 Vλ” value [1, 10] was 263 ± 113 L/m^2. The “KOS-1584 t1/2” value [1, 10] was 23.5 ± 1.77 h, the “KOS-1584 AUC” value [1, 11] was 2,440 ± 945 ng h/mL and the “KOS-1584 CL” value [1, 11] was 9.28 ± 3.56 L/h/m^2. The “KOS-1584 Cmax” value [1, 11] was 284 ± 153 ng/mL, the “KOS-1584 Tmax” value [1, 11] was 2.38 ± 0.80 ng/mL and the “KOS-1584 Vλ” value [1, 11] was 288 ± 165 L/m^2. The “KOS-1584 t1/2” value [1, 11] was 20.2 ± 8.15 h, the “KOS-1584 AUC” value [1, 12] was 3,190 ± 1,490 ng h/mL and the “KOS-1584 CL” value [1, 12] was 10.1 ± 5.00 L/h/m^2. The “KOS-1584 Cmax” value [1, 12] was 259 ± 110 ng/mL, the “KOS-1584 Tmax” value [1, 12] was 3.10 ± 0.27 ng/mL and the “KOS-1584 Vλ” value [1, 12] was 434 ± 339 L/m^2. For the same compound, the “KOS-1584 t1/2” value [1, 12] was 27.8 ± 9.08 h, the “KOS-1584 AUC” value [1, 13] was 5,267 ± 3,190 ng h/mL and the “KOS-1584 CL” value [1, 13] was 8.98 ± 4.59 L/h/m^2. The “KOS-1584 Cmax” value [1, 13] was 701 ± 425 ng/mL, the “KOS-1584 Tmax” value [1, 13] was 2.67 ± 0.58 ng/mL and the “KOS-1584 Vλ” value [1, 13] was 329 ± 134 L/m^2. The “KOS-1584 t1/2” value [1, 13] was 27.9 ± 10.6 h, the “KOS-1584 AUC” value [1, 14] was 7,355 ± 4,718 ng h/mL and the “KOS-1584 CL” value [1, 14] was 8.52 ± 5.43 L/h/m^2. The “KOS-1584 Cmax” value [1, 14] was 1,066 ± 513 ng/mL, the “KOS-1584 Tmax” value [1, 14] was 2.95 ± 0.04 ng/mL and the “KOS-1584 Vλ” value [1, 14] was 277 ± 165 L/m^2. For the same compound, the “KOS-1584 t1/2” value [1, 14] was 24.1 ± 9.37 h, the “KOS-1584 AUC” value [1, 15] was 4,727 ± 167 ng h/mL and the “KOS-1584 CL” value [1, 15] was 10.1 ± 0.27 L/h/m^2. The “KOS-1584 Cmax” value [1, 15] was 769 ± 42.4 ng/mL, the “KOS-1584 Tmax” value [1, 15] was 2.92 ± 0.0 ng/mL and the “KOS-1584 Vλ” value [1, 15] was 349 ± 205 L/m^2. For the same compound, the “KOS-1584 t1/2” value [1, 15] was 24.1 ± 14.7 h, the mean overall clearance [1, 16] was 11 ± 6.17 L/h/m^2 and the “mean overall half-life of KOS-1584” value [1, 16] was 21.9 ± 8.75 h. The “mean overall volume of distribution” value [1, 16] was 327 ± 161 L/m^2, the accumulation ([1]; every 3 weeks dosing, cycles 1 and 2) was “no accumulation” and the “mean percentage of MBF” value (tubulin in PBMCs; 1 h after infusion) was 50%. For the same compound, the “mean percentage of MBF” value (tubulin in PBMCs; 24 h after infusion) was 26%, the “E0 of MBF” value (tubulin in PBMCs; sigmoidal maximum effect model) was 3.69% and the “EC50 of plasma concentration for MBF” value (tubulin in PBMCs; sigmoidal maximum effect model) was 0.0241 µg/mL. For the same compound, the “Emax of MBF” value (tubulin in PBMCs; sigmoidal maximum effect model) was 52.7%, the “effect on QTcB interval” value (QTcB interval) was “did not show any effects” and the “inhibition of CYP3A4/5” value (CYP3A4/5) was “potent inhibitor”.

Source: publication PMC3865603 (Cancer chemotherapy and pharmacology, 2011)
